Results from PMC11581978, “Paenilamicins are context-specific translocation inhibitors of protein synthesis” (Nature Chemical Biology, 2024).
pIC50: −log10 of the molar value.

Experiments:
[1] = tested on: Escherichia coli in vitro translation; conditions: well-known translation inhibitors; read-out: IC50; cited from earlier work
Source text: The accordance of structural features of paenilamicins with the translation inhibitor edeine (Extended Data Fig. 1c) led to the hypothesis that paenilamicins may also exert their antimicrobial activity by binding to the ribosome and inhibiting protein synthesis. […] The best understood context-specific translation inhibitors are those that target the large subunit, where their inhibitory action is influenced by the sequence of the nascent polypeptide chain being synthesized, for example, macrolides and ketolides[30]–[32] ...

[2] = tested on: ribosomes translating ErmBL mRNA; test: Toeprinting on ErmBL mRNA templates (Figs. 4a and 5c); type: biochemical, E. coli; conditions: for ribosome stalling on wildtype ErmBL mRNA: mupirocin present, in duplicate
Description: Toeprinting reactions for Figs. 4a and 5c were performed as described previously. Briefly, reactions were performed with 5 μl of PURExpress in vitro protein synthesis system. The reactions contained 0.1 pmol of the respective DNA template (Supplementary Table 2) and were supplemented with retapamulin, erythromycin, mupirocin or PamB2 as specified. The transcription–translation reactions were incubated 20 min at 37 °C. Subsequently, reverse transcription was performed for 10 min at 37 °C using AMV RT and the radiolabeled NV*1-primer. Reactions were stopped by the addition of 1 µl of 10 M NaOH and then neutralized with 0.8 µl of concentrated HCl. Subsequently, 200 µl of the stop buffer (0.3 M sodium acetate (pH 5.5), 5 mM EDTA and 0.5% SDS) was added and phenol extraction was performed. The obtained complementary DNA was precipitated in ethanol for subsequent gel electrophoresis.

[3] = tested on: EF-G-dependent translocation on the ribosome; test: Translocation assay (toeprinting, MFKAFK template); type: biochemical; conditions: EF-G present; tRNAfMet in P-site, N-AcPhe-tRNAPhe in A-site; in duplicate
Description: Translocation assays were performed as previously described[22] using the MFKAFK template[45] (Supplementary Table 2). Reactions were prepared by incubating tight-coupled ribosomes (0.7 µM) with mRNA (0.5 µM) and tRNAi^Met (1 µM) for 20 min at 37 °C in the Pure System Buffer (5 mM potassium phosphate (pH 7.3), 9 mM Mg(OAc)2, 95 mM potassium glutamate, 5 mM NH4Cl, 0.5 mM CaCl2, 1 mM spermidine, 8 mM putrescine and 1 mM dithiothreitol) and for additional 10 min at 37 °C with 2 μM of N-acetyl-Phe-tRNA^Phe. At the time of N-acetyl-Phe-tRNA^Phe addition, the reactions were supplemented with PamB2 or negamycin as specified. The translocation reaction was initiated by addition of 1 µl of EF-G–GTP mixture (1.2 µM and 3.2 mM). After 5 min of incubation at 30 °C, 2 µl of reverse transcriptase and/or dNTPs mixture was added. The reactions were stopped after another 5 min at 30 °C by addition of 200 µl of the stop buffer and subsequent phenol extraction. The obtained complementary DNA was precipitated in ethanol for subsequent gel electrophoresis.

[4] = tested on: EF-G-dependent translocation on the ribosome; parameters: method as in PMID 25306922; conditions: cited from earlier work
[5] = tested on: E. coli ribosomes translating MLIFstop-mRNA; test: Toeprinting assay on MLIFstop-mRNA; type: biochemical; conditions: 100 µM, positive control, toeprinting in duplicate
Source text: To investigate how paenilamicins inhibit translation, we generated PamB2-stalled ribosome complexes (PamB2-SRC) for single-particle cryo-EM analysis. Rather than forming complexes on vacant ribosomes, or with predefined functional states, we instead aimed to use more physiological complexes where translating ribosomes become stalled by PamB2. To achieve this, we performed in vitro translation reactions with E. coli ribosomes using the Met-Leu-Ile-Phe-stop-mRNA (MLIFstop-mRNA), a model template that we had previously used to successfully determine structures of drosocin-stalled ribosomal complexes. Toeprinting was used to monitor the position of ribosomes on the MLIFstop-mRNA in the presence of increasing concentrations of synthetic PamB2 (Extended Data Fig. 2). […] (Extended Data Fig. 2). […] (Extended Data Fig. 2).
Toeprinting reactions for Fig. 4b and Extended Data Fig. 2 were performed as described previously. Briefly, reactions were performed with 6 μl of PURExpress in vitro protein synthesis system (New England Biolabs). The reactions were carried out with different primers and templates (Supplementary Tables 2 and 3). The reactions contained 340 ng of the respective mRNA template and were supplemented with the different compounds as specified. The translation reactions were incubated for 30 min at 37 °C. […]

Compound: O=C(N[C@H](CO)[C@H](O)c1ccc([N+](=O)[O-])cc1)C(Cl)Cl [chloramphenicol, reference compound]
- pIC50 [1]: 6.00

Compound: CC[C@H]1OC(=O)[C@H](C)[C@@H](O[C@H]2C[C@@](C)(OC)[C@@H](O)[C@H](C)O2)[C@H](C)[C@@H](O[C@@H]2O[C@H](C)C[C@H](N(C)C)[C@H]2O)[C@](C)(O)C[C@@H](C)C(=O)[C@H](C)[C@@H](O)[C@]1(C)O [erythromycin, reference compound]
- ribosome stalling on wildtype ErmBL mRNA ([2]; 50 µM): accumulation of ribosomes stalled with the tenth CAU codon (encoding Asp) in the P-site
- pIC50 [1]: 6.12

Compound: C/C(=C\C(=O)OCCCCCCCCC(=O)O)C[C@@H]1OC[C@H](C[C@@H]2O[C@H]2[C@@H](C)[C@H](C)O)[C@@H](O)[C@H]1O [mupirocin, reference compound]
- ribosome trapping at twelfth codon (AUC, Ile) of ErmBL mRNA ([2]; Ile-tRNA synthetase inhibitor added to all reactions, concentration not given): become trapped

Compound: CN(CC(=O)O)NC(=O)C[C@H](N)C[C@@H](O)CN [negamycin, reference compound]
- EF-G dependent translocation (toeprint shift) [3]: little to no shift in the toeprint band
- interference with translocation [4]: interfere with translocation

Compound: C=C[C@]1(C)C[C@@H](OC(=O)CS[C@@H]2C[C@H]3CC[C@@H](C2)N3C)[C@]2(C)[C@H](C)CC[C@]3(CCC(=O)[C@H]32)[C@@H](C)[C@@H]1O [retapamulin, reference compound]
- ribosome stalling on wildtype ErmBL mRNA ([2]; 50 or 100 µM): traps ribosomes on the AUG start codon

Compound: CN(C)[C@@H]1C(O)=C(C(N)=O)C(=O)[C@@]2(O)C(O)=C3C(=O)c4c(O)cccc4[C@@](C)(O)[C@H]3C[C@@H]12 [tetracycline, reference compound]
- pIC50 [1]: 5.00

Compound: thiostrepton [reference compound]
- ribosome stalling on MLIFstop-mRNA [5]: a single strong band is observed that corresponds to ribosomes trapped on the AUG start codon
